TGI data for four molecules are collected here from PubChem BioAssay (NCI).

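Interpolation was linear, between the two tested concentrations surrounding the appropriate level; five concentrations were tested over 48 hours in 96-well plates. TGI: concentration producing complete growth inhibition.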 Bounds are passed on as bounds.

Test systems include RPMI-8226 leukemia; HOP-92 NSCLC; M14 melanoma; MOLT-4 leukemia; NCI-H23 lung; OVCAR-8 ovarian; DU-145 prostate; SR leukemia; A549 NSCLC; MCF7 breast; LOX IMVI melanoma; HT29 colon; PC-3 prostate; MDA-MB-231 breast; OVCAR-5 ovarian; ACHN renal; NCI-H522 lung; K-562 leukemia; T-47D breast.
Common to all, as to experiment: inhibition of tumour cell growth, NCI panel, 48 h

Turning to `O=C1CSC(c2ccccc2)N1c1ccc(-n2c(-c3ccccc3)nc3ccccc3c2=O)cc1` (stereo unspecified), the TGI in the assay on RPMI-8226 leukemia, in the assay on HOP-92 NSCLC, with M14 melanoma, in the assay with MOLT-4 leukemia, with NCI-H23 lung and in the assay with OVCAR-8 ovarian was greater than 100 µM throughout. Further, the TGI in the assay on DU-145 prostate, in the assay with SR leukemia, with A549 NSCLC, in the assay with MCF7 breast, in the assay with LOX IMVI melanoma and with HT29 colon was greater than 100 µM each time. The TGI with PC-3 prostate, in the assay on MDA-MB-231 breast, in the assay with OVCAR-5 ovarian, in the assay with ACHN renal, in the assay with NCI-H522 lung and in the assay with K-562 leukemia was greater than 100 µM in each case. Further, the TGI with T-47D breast is greater than 100 µM.

With `Cc1cc(=O)oc2c(CNC(CO)C(=O)O)c(O)ccc12` (stereo unspecified), the TGI in the assay on RPMI-8226 leukemia, in the assay with HOP-92 NSCLC, with M14 melanoma, in the assay with MOLT-4 leukemia, with NCI-H23 lung and with OVCAR-8 ovarian was greater than 100 µM throughout. The TGI with DU-145 prostate, in the assay on SR leukemia, with A549 NSCLC, in the assay with MCF7 breast, with LOX IMVI melanoma and with HT29 colon was greater than 100 µM each time. The TGI in the assay with PC-3 prostate, in the assay on MDA-MB-231 breast, in the assay with OVCAR-5 ovarian, in the assay with ACHN renal, in the assay with NCI-H522 lung and in the assay on K-562 leukemia was greater than 100 µM each time. The TGI in the assay with T-47D breast was greater than 100 µM.

`O=C(O)C1(Cc2ccccc2)Cc2cc3c(cc2C1)CCC3`: the TGI with RPMI-8226 leukemia is greater than 100 µM; with HOP-92 NSCLC, 94 µM; in the assay on M14 melanoma it was greater than 100 µM; in the assay with MOLT-4 leukemia, greater than 100 µM; with NCI-H23 lung it was greater than 100 µM; with OVCAR-8 ovarian it was greater than 100 µM. Further, the TGI in the assay with DU-145 prostate, in the assay on SR leukemia, with A549 NSCLC, in the assay on MCF7 breast, in the assay with LOX IMVI melanoma and in the assay with HT29 colon was greater than 100 µM each time. Further, the TGI with PC-3 prostate, in the assay with MDA-MB-231 breast, with OVCAR-5 ovarian, in the assay with ACHN renal, in the assay with NCI-H522 lung and with K-562 leukemia was greater than 100 µM each time. The molecule further came in with a TGI in the assay on T-47D breast greater than 100 µM.

`O=C1/C(=C/c2ccc(O)cc2)CCc2ccc([N+](=O)[O-])cc21`: the TGI is greater than 100 µM in the assay on RPMI-8226 leukemia; greater than 89.6 µM in the assay with HOP-92 NSCLC; greater than 100 µM with M14 melanoma; greater than 100 µM in the assay with MOLT-4 leukemia; greater than 100 µM with NCI-H23 lung; greater than 100 µM with OVCAR-8 ovarian. For the same molecule, the TGI with DU-145 prostate, in the assay on SR leukemia, in the assay on A549 NSCLC, with MCF7 breast, in the assay on LOX IMVI melanoma and in the assay on HT29 colon was greater than 100 µM each time. For the same molecule, the TGI was greater than 100 µM with PC-3 prostate; greater than 100 µM in the assay on MDA-MB-231 breast; greater than 100 µM with OVCAR-5 ovarian; greater than 100 µM in the assay on ACHN renal; greater than 30.8 µM in the assay with NCI-H522 lung; greater than 100 µM in the assay on K-562 leukemia. Besides, the TGI with T-47D breast is greater than 100 µM.
